The results in this text go back to paper PMC10895676, “Antiviral Activity of Lipophilic Nucleoside Tetraphosphate Compounds” (Journal of Medicinal Chemistry, 2024).

In series [1] the test system is pig liver esterase (PLE). Put plainly: Enzymatic hydrolysis with pig liver esterase (PLE). Format: in vitro ADME. The conditions noted are these: pig liver esterase in phosphate buffer, PLE in phosphate buffer pH 7.3, 37 °C, read-out: PLE t1/2 (converted). The method, then: To confirm the enzymatic hydrolysis process, TetraPPPPro-nucleotides 4–9 bearing different kinds of lipophilic groups attached to the δ-phosph(on)ate group were incubated with PLE in phosphate buffer.
Then, 833 μL of 50 mM phosphate buffer (pH 7.3) and 125 μL of DMSO were added to the 6.0 mM hydrolysis solutions. The reaction was started by addition of 62.5 μL of PLE in phosphate buffer (100 units/mL), and the mixture was incubated at 800 rpm at 37 °C in a thermomixer. (1). At different times, aliquots (75 μL) were taken and stopped by the addition of […] of MeOH. The mixture was stored in liquid nitrogen. When testing, samples were warmed up to room temperature, and 60 μL of the liquid was directly injected into HPLC analysis. (2). 40 μL for each extraction was stored in liquid nitrogen. When testing, samples were warmed up to room temperature, and 30 μL of the liquid was taken and injected into the analytical RP-18-HPLC instrument. The calculation of t1/2 was performed analogously to that for the chemical hydrolysis studies.

Series [2] is described as follows: Hydrolysis in CEM/0 cell extracts. Format: in vitro ADME. Conditions: human. The method, then:
Next, TetraPPPPro-nucleotides 4–9 were incubated in human CD4^+ T-lymphocyte CEM/0 cell extracts to study their stability and identify the hydrolysis products.
CEM cells were grown in RPMI-1640-based cell culture medium to a final density of ∼3 × 10^6 cells/mL. Cells were centrifuged for 10 min at 1250 rpm at 4 °C and washed twice with cold PBS, and the pellet was resuspended at 10^8 cells/mL and sonicated (Hielscher Ultrasound Techn., 100% amplitude, 3·times for 10 s) to destroy cell integrity. Next, the resulting cell suspension was centrifuged at 10,000 rpm to remove cell debris. Finally, the supernatant was divided into aliquots and frozen at −80 °C.
6.0 mM hydrolysis solutions of compounds 4–9 were prepared from 21 μL of 50 mM DMSO stock solutions and 154 μL of DMSO. Two different samples, including 10 μL of water and 10 μL of 6.0 mM hydrolysis solution, were prepared in 2 mL Eppendorf vials. Next, 50 μL of human CEM cell extracts or 50 μL of human citrate plasma were added to the mixture, the reaction was started, and the mixture was incubated at 37 °C for different time periods. The reactions were stopped by the addition of 150 μL of MeOH. The resulting suspension was kept on ice for 5 min, followed by defrosting and centrifugation at 14,000 rpm (Heraeus, Biofuge Pico) for 22 min. The supernatants (80 or 60 μL) were directly injected into HPLC. The calculation of t1/2 was performed analogously to that for the chemical hydrolysis studies.

Series [3] deals with HIV-1 (HE). Kind of series: Anti-HIV replication assay, HIV-1 (HE) in wild-type CEM/0 cells. Format: cell-based. Conditions: Human immunodeficiency virus 1, CCRF-CEM, read-out: HIV-1 (HE) EC50. The essentials: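 Wild-type CEM/0 CD4+ T-cells (~3 × 10^5 cells/mL) infected with 100 CCID50/mL HIV-1(HE) alongside compound dilutions, incubated 4–5 days at 37 °C. Syncytia (giant cell) formation scored microscopically; EC50 is the concentration inhibiting HIV-induced giant cell formation by 50%.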

Series [4] deals with HIV-2 (ROD). Put plainly: Anti-HIV replication assay, HIV-2 (ROD) in wild-type CEM/0 cells. Format: cell-based. Conditions: for EC50: Human immunodeficiency virus 2, CCRF-CEM, read-out: HIV-2 (ROD) EC50; for selectivity index (SI): CC50/EC50, HIV-2 (ROD) in CEM cells. The essentials: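 Wild-type CEM/0 or thymidine kinase-deficient CEM/TK– T-cells (~3 × 10^5 cells/mL) were infected with 100 CCID50/mL HIV-2(ROD) in the presence of compound dilutions. After 4–5 days at 37 °C, virus-induced cytopathicity and syncytium formation were scored microscopically.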

The mark [5] stands for this setting: 37 °C, read-out: CEM/0 cell extracts t1/2 (converted).
[6] abbreviates: wild-type CEM/0 cells, mean ± SD, n = 2–3.

Where two headings read alike, the source gives them in different places.

Usually EC50 stands for the concentration at which the effect is half-maximal.

For `CCCCCCCCCCCCCCCCCCP(=O)(OCCCC)OP(=O)(O)OP(=O)(O)OP(=O)(O)OC[C@@H]1C=C[C@H](n2cc(C)c(=O)[nH]c2=O)O1` (stereo partly shown) [5a, δ-(Alkyl-C4)-δ-C-(alkyl-C18)-d4T4P], the half-life at 0.45 mM in series [1] is more than 50 h. In addition, in series [2] (setting [5]), the half-life at 0.86 mM is more than 20 h. Further, the EC50 in series [3] was 330 ± 90 nM; in series [4] it was 330 ± 120 nM.

In the case of `Cc1cn([C@H]2C=C[C@@H](COP(=O)(O)OP(=O)(O)OP(=O)(O)OP(=O)(O)O)O2)c(=O)[nH]c1=O` [d4T4P, 2′,3′-didehydro-2′,3′-dideoxythymidine-5′-tetraphosphate], the half-life at 0.86 mM in series [2] (setting [5]) is 0.37 h; in series [2] (dephosphorylation, read-out: t1/2 in CEM/0 cell extracts) it was 0.367 h. Further, the results for the 50% effective concentration (EC50) in series [3] (setting [6]) and in series [4] (setting [6]) were 420 ± 160 nM and 220 ± 92 nM, respectively.

On to `CCCCCCCCCCCCCCCCCCOP(=O)(OCCCC)OP(=O)(O)OP(=O)(O)OP(=O)(O)OC[C@@H]1C=C[C@H](n2cc(C)c(=O)[nH]c2=O)O1` (stereo partly shown) [4d, δ-(Alkyl-C4; alkyl-C18)-d4T4P], for which the half-life at 0.45 mM in series [1] is more than 50 h. Besides, in series [2] (setting [5]), the half-life at 0.86 mM was more than 20 h. For the same compound, the results for the 50% effective concentration (EC50) in series [3] (setting [6]) and in series [4] (setting [6]) were 110 ± 10 nM and 84 ± 18 nM, respectively. Moreover, the “selectivity index (SI)” value in series [4] was determined as 522.

As for `CCCCCCCCCCCCCCCCCCOP(=O)(O)OP(=O)(O)OP(=O)(O)OP(=O)(O)OC[C@@H]1C=C[C@H](n2cc(C)c(=O)[nH]c2=O)O1` [compound 20, δ-(Alkyl-C18)-d4T4P], the half-life at 0.45 mM in series [1] was more than 50 h. Further, the half-life at 0.86 mM in series [2] (setting [5]) was more than 8 h. Besides, the concentration for a half-maximal effect (EC50) in series [3] (setting [6]) was determined as 710 ± 260 nM; in series [4] (setting [6]), 500 ± 160 nM. In series [4], the “selectivity index (SI)” value is recorded as more than 200.

As for `CCCCCCCCCCCCCCCCCCP(=O)(O)OP(=O)(O)OP(=O)(O)OP(=O)(O)OC[C@@H]1C=C[C@H](n2cc(C)c(=O)[nH]c2=O)O1` [compound 24, δ-C-(Alkyl-C18)-d4T4P], the half-life at 0.45 mM in series [1] is more than 50 h. Besides, the half-life at 0.86 mM in series [2] (setting [5]) was more than 30 h. The EC50 is 430 ± 370 nM in series [3] (setting [6]) and 240 ± 70 nM in series [4] (setting [6]).
